{"source": "patent US20260008862A1", "about": "“Bispecific Anti-BCMA x Anti-CD3 Antibodies and Uses Thereof” (Regeneron Pharmaceuticals, Inc., priority 2018, published 2026)", "key": {"[1]": {"system": "MC38/BCMA tumors", "test": "Syngenic MC38/BCMA tumor model, combination with anti-PD-1 (Example 20)", "type": "in vivo", "conditions": "REGN5458 0.04 or 0.24 mg/kg plus anti-mouse PD-1 (Clone RPM1-14) 4 mg/kg", "method": "Implantation and measurement of syngenic tumors: C57BL/6 mice that express human CD3deg in place of murine CD3deg (CD3-humanized mice) were subcutaneously implanted with 1×10^6 MC38 colon carcinoma cells that have been engineered to express full-length human BCMA (MC38/BCMA).\nThe mice were administered these Abs twice more on days 7 and 11 for a total of three doses, and tumor growth was assessed throughout the experiment.\n(§1) Calculation of syngenic tumor growth and inhibition: In order to determine tumor volume by external caliper, the greatest longitudinal diameter (length in mm) and the greatest transverse diameter (width in mm) were determined. Tumor volumes based on caliper measurements were calculated by the formula: Volume (mm^3)=(length×width^2)/2."}, "[2]": {"system": "B16/BCMA tumors", "test": "Syngenic B16/BCMA tumor model in CD3-humanized mice (Example 16)", "type": "in vivo, mouse", "conditions": "for Average Tumor Size (mm3) ± SEM on Day 5 / Average Tumor Size (mm3) ± SEM on Day 10 / Average Tumor Size (mm3) ± SEM on Day 14 / Average Tumor Size (mm3) ± SEM on Day 18: B16/BCMA Tumor", "method": "To determine the in vivo efficacy of anti-BCMA×anti-CD3 bispecific antibodies (Abs), a syngenic tumor study was performed in mice expressing human CD3. C57BL/6 mice that express human CD3deg in place of murine CD3deg (CD3-humanized mice) were subcutaneously implanted with either 0.5×10^6 B16 melanoma cells that have been engineered to express full-length human BCMA (B16/BCMA cells) or 1×10^6 MC38 colon carcinoma cells that have been engineered to express full-length human BCMA (MC38/BCMA). […] The mice were administered these Abs twice more on days 4 and 7 for a total of three doses, and tumor growth was assessed throughout the experiment.\nImplantation and measurement of syngenic tumors: C57BL/6 mice that express human CD3deg in place of murine CD3deg (CD3-humanized mice) were subcutaneously implanted with either 0.5×10^6 B16F10 melanoma cells that have been engineered to express full-length human BCMA (B16/BCMA cells) or 1×10^6 MC38 colon carcinoma cells that have been engineered to express full-length human BCMA (MC38/BCMA). […] The mice were administered these Abs twice more on days 4 and 7 for a total of three doses, and tumor growth was assessed throughout the experiment.\nas §1"}, "[3]": {"system": "primary human plasma cells (CD138+)", "test": "Autologous T cell-mediated killing of human plasma cells", "type": "cell-based", "method": "The specific killing of enriched CD138^+ human or cynomolgus monkey plasma cells by unstimulated autologous T cells was assessed by flow cytometry. Human or cynomolgus bone marrow aspirates and blood were provided within 24 hours of harvest. CD138^+ plasma cells were enriched from bone marrow by positive selection using the EasySep™ Human CD138^+ Positive Selection kit according to the manufacturer's instructions. PBMC from whole blood were isolated by density separation. PBMC were labeled with 1 μM of Vybrant™ CFDA-SE fluorescent tracking dye. […] At the end of the culture, surviving CD138^+ plasma cells were analyzed by flow cytometry, utilizing fixable LIVE/DEAD dye and plasma cell specific cell surface markers. Percent viability was normalized to control condition (plasma cells in the presence of PBMC only). T cell activation was assessed by flow cytometry. Activation is reported as the percentage of CD2^+/CD4^+ or CD2^+/CD8^+/CD16^− T cells expressing CD25. Percent T cell activation was normalized to control condition (plasma cells in the presence of PBMC only)."}, "[4]": {"biological_target": "T1, human BCMA-MFC (Homo sapiens, UniProt Q02223)", "T1 construct": "(human BCMA-MFC); made in house", "T1 sequence (Q02223 with tags, fused parts or gaps)": "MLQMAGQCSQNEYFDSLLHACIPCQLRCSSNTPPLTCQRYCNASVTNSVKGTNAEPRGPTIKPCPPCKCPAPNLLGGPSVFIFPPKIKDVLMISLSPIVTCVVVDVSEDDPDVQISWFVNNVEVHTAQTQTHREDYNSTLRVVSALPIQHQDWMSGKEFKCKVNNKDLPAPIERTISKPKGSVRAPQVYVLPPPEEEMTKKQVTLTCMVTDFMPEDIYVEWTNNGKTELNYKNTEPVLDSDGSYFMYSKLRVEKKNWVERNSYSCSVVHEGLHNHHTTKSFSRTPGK", "test": "SPR (Biacore 4000) binding kinetics to human BCMA-MFC", "conditions": "25° C.", "method": "The CM5 Biacore sensor surface was derivatized by amine coupling with a monoclonal mouse anti-human Fc antibody (GE, #BR-11008-39) to capture purified anti-BCMA mAbs and anti-BCMA×anti-CD3 bispecific mAbs. All Biacore binding studies were performed in a buffer composed of 0.01 M HEPES pH 7.4, 0.15M NaCl, 3 mM EDTA, 0.05% v/v Surfactant P20 (HBS-ET running buffer). […] Antigen samples were then injected over the anti-BCMA and anti-BCMA×anti-CD3 bispecific mAbs captured surfaces at a flow rate of 30 μL/minute. Antibody-reagent association was monitored for 5 minutes while dissociation in HBS-ET running buffer was monitored for 10 minutes. All of the binding kinetics experiments were performed at 25° C. Kinetic association (ka) and dissociation (kd) rate constants were determined by fitting the real-time sensorgrams to a 1:1 binding model using Scrubber 2.0c curve fitting software. Binding dissociation equilibrium constants (KD) and dissociative half-lives (t½) were calculated from the kinetic rate constants as: […]"}, "[5]": {"system": "Jurkat/NFATLuc.3C7 cells + MOLP-8 cells", "test": "Jurkat/NFATLuc reporter bioassay with MOLP-8 cells", "type": "cell-based", "conditions": "highest RLU / lowest RLU", "method": "Activity of the anti-BCMA×anti-CD3 bispecific antibodies were assessed in a Jurkat/NFATLuc reporter bioassay utilizing several cell lines with varying levels of BCMA surface expression. The Jurkat cells were engineered to express an NFAT-luciferase reporter (Jurkat/NFATLuc.3C7), and 50,000 Jurkat reporter cells were combined with 50,000 BCMA positive (Daudi, MM1-S, NCI-H929, OPM-2, RPMI-8226, MOLP-8, or Raji) or BCMA negative (HEK293) cells in Thermo Nunclon delta 96 well white microwell plates (Thermo Scientific, Cat #136102) in 50 ul of assay media (RPMI media with 10% FBS and 1% P/S/G). Three-fold serial dilutions of the BCMA×CD3 bispecific antibodies (mAb25441 D or mAb25442D), or a bivalent anti-BCMA antibody (mAb21581) were immediately added in 50 μL of assay buffer. The plates were gently agitated and incubated in a 37° C., 5% CO2 incubator for 4-6 hours. NFAT-Luciferase activity was determined using Promega One-Glo (Cat #E6130) and a Perkin Elmer Envision plate reader. RLU were plotted in GraphPad Prism using a four-parameter logistic equation over a 12-point response curve to calculate EC50 values. […] The signal to noise (S:N) is determined by taking the ratio of the highest RLU on the curve to the lowest."}}, "note": "Where two headings read alike, the source gives them in different places.", "data": [{"substance": "REGN5458: anti-BCMA×anti-CD3 bispecific antibody: BCMA HCVR of mAb21581 (SEQ 66), CD3 HCVR of mAb7221G (SEQ 90), common LCVR SEQ 82", "values": [{"measurement": "anti-tumor efficacy of the combination (in words)", "setting": "[1]", "result": "superior anti-tumor efficacy"}, {"measurement": "Average Tumor Size (mm3) ± SEM on Day 5", "setting": "[2]; 0.04 mg/kg", "result": "3.3 ± 2.2", "unit": "mm3"}, {"measurement": "Average Tumor Size (mm3) ± SEM on Day 10", "setting": "[2]; 0.04 mg/kg", "result": "15.4 ± 12.5", "unit": "mm3"}, {"measurement": "Average Tumor Size (mm3) ± SEM on Day 14", "setting": "[2]; 0.04 mg/kg", "result": "81.4 ± 49.2", "unit": "mm3"}, {"measurement": "Average Tumor Size (mm3) ± SEM on Day 18", "setting": "[2]; 0.04 mg/kg", "result": "127.2 ± 63.9", "unit": "mm3"}, {"measurement": "Average Tumor Size (mm3) ± SEM on Day 5", "setting": "[2]; 0.4 mg/kg", "result": "0.0 ± 0.0", "unit": "mm3"}, {"measurement": "Average Tumor Size (mm3) ± SEM on Day 10", "setting": "[2]; 0.4 mg/kg", "result": "0.0 ± 0.0", "unit": "mm3"}, {"measurement": "Average Tumor Size (mm3) ± SEM on Day 14", "setting": "[2]; 0.4 mg/kg", "result": "8.1 ± 4.4", "unit": "mm3"}, {"measurement": "Average Tumor Size (mm3) ± SEM on Day 18", "setting": "[2]; 0.4 mg/kg", "result": "47.1 ± 17.0", "unit": "mm3"}, {"measurement": "tumor growth (in words)", "setting": "[2]; B16/BCMA, 0.4 or 0.04 mg/kg, three doses", "result": "suppress the growth of both tumor lines in a dose-dependent manner"}, {"measurement": "Cytotoxic Kill Max % Cytotoxicity", "setting": "[3]; Human Donor 1 plasma cells, autologous primary human T cells, E:T 10:1, 72 hours", "result": 91, "unit": "%"}, {"measurement": "EC50", "setting": "[3]; Human Donor 1 plasma cells, autologous primary human T cells, read-out: T Cell Activation (% CD25 Upregulation) CD8+ T cells EC50", "result": 0.214, "unit": "nM"}, {"measurement": "Cytotoxic Kill Max % Cytotoxicity", "setting": "[3]; Human Donor 2 plasma cells, autologous primary human T cells, E:T 10:1, 72 hours", "result": 89, "unit": "%"}, {"measurement": "EC50", "setting": "[3]; Human Donor 2 plasma cells, autologous primary human T cells, E:T 10:1, 72 hours, read-out: Cytotoxic Kill EC50", "result": 0.191, "unit": "nM"}, {"measurement": "T Cell Activation (% CD25 Upregulation) CD8+ T cells % Activation", "setting": "[3]; Human Donor 2 plasma cells, autologous primary human T cells, maximum", "result": 36, "unit": "%"}, {"measurement": "maximum percent cytotoxicity", "setting": "[3]; human donor 1", "result": 91, "unit": "%"}, {"measurement": "EC50", "setting": "[3]; human donor 1, CD25, read-out: CD8+ T cell activation EC50", "result": 0.214, "unit": "nM"}, {"measurement": "EC50", "setting": "[3]; human donor 1, read-out: cytotoxicity EC50", "result": 0.0428, "unit": "nM"}, {"measurement": "maximum percent CD8+ T cell activation", "setting": "[3]; human donor 2", "result": 36, "unit": "%"}, {"measurement": "maximum percent cytotoxicity", "setting": "[3]; human donor 2", "result": 89, "unit": "%"}, {"measurement": "EC50", "setting": "[3]; human donor 2, CD25, read-out: CD8+ T cell activation EC50", "result": 0.86, "unit": "nM"}, {"measurement": "EC50", "setting": "[3]; human donor 2, read-out: cytotoxicity EC50", "result": 0.191, "unit": "nM"}]}, {"substance": "REGN5459: anti-BCMA×anti-CD3 bispecific antibody: BCMA HCVR of mAb21581 (SEQ 66), CD3 HCVR of mAb7221G20 (SEQ 98), common LCVR SEQ 82", "values": [{"measurement": "ka", "setting": "[4]", "result": 449000, "unit": "M⁻¹ s⁻¹"}, {"measurement": "kd", "setting": "[4]", "result": "≤1e-05", "unit": "s⁻¹"}, {"measurement": "S:N", "setting": "[5]", "result": 31}]}]}
